How the values were obtained:
[1] = system: E. coli in the biofilm; test: Antibacterial activity against cells immersed in a biofilm matrix (CFU, drop plate); format: cell-based
Description: (§1) To determine the effectiveness of the antibiotic against bacteria in […], bacteria were grown in Basal medium for 3 days at a temperature of 37° C. without swinging to obtain a dense biofilm [A. R Kayumov, Khakimullina E., Sharafutdinov I, Trizna E., Latypova L., Lien Thi, Margulis A., Bogachev M, Kurbangalieva A. Inhibition of biofilm formation in Bacillus subtilis by new halogenated furanoses. J. Antibiotics.—2014.—V. 68.—No 5.—P. 297-301.]. Then the biofilm was washed with a sterile 0.9% NaCl solution and fresh sterile medium was poured. Antiseptics were added to concentrations (1-16)×MBC (minimum bactericidal concentration) and incubated for 24 hours. Then the culture fluid was removed from the wells, washed once with 0.9% NaCl solution to remove non-adherent cells, and cell viability in biofilms was evaluated by counting CFU by Drop plate analysis [B. Herigstad, M Hamilton, J. Heersink How to optimize the drop plate method for enumerating bacteria. J Microbiol Methods.—2001.—V. 44.—P. 121-129]. To do this, the biofilm was mechanically removed from the surface and homogenized in 0.9% NaCl by pipetting and ultrasonic treatment. Then, serial 10-fold dilutions of the bacterial suspension in 0.9% NaCl were prepared, and 5 μI of each suspension were transferred to plates with dense nutrient medium. CFU was counted from drops containing 5-10 colonies.
(§2) The results of the study of antimicrobial activity against cells of the studied strains immersed in the biofilm matrix, in comparison with miramistin and benzalkonium chloride, are presented in FIGS. 1 and 2.

[2] = system: K. pneumonia in the biofilm; test: as above; format: cell-based
Description: as §1, §2

CCCCCCCCCCCC[N+](C)(C)Cc1cnc(C[N+](C)(C)CCCCCCCCCCCC)c2c1COC(CC)O2 (centres unmarked) [Compound I, 5,8-(Bis(methylene (N, N-dimethyl-N-dodecylammonium))-2-ethyl-4H-[1,3]dioxino [4,5-c]pyridiniumdichloride]
activity in the biofilm compared with comparison antiseptics [1]: the same activity as miramistine and benzalconium chloride
activity in the biofilm compared with comparison antiseptics [2]: the same activity as miramistine and benzalconium chloride

— patent US11014934B2, “Antiseptic drug” (AO “TATKHIMFARMPREPARATY”, priority 2017, dated 2021)
